Paper PMC6528465 (ACS infectious diseases, 2018)

Columns and labels:
HEK-293 (kidney) = test: Mammalian cytotoxicity HEK-293; assay type: cell-based; conditions: 1% v/v in 0.5% DMSO
J774A.1 (macrophage) = test: Mammalian cytotoxicity J774A.1; assay type: cell-based; conditions: 1% v/v in 0.5% DMSO
A549 (lung) = test: Mammalian cytotoxicity A549; assay type: cell-based; conditions: 1% v/v in 0.5% DMSO
Mtb H37Rv = assay type: cell-based, Mycobacterium tuberculosis; conditions: no inhibitor

| Compound | cell survival (positive control) (HEK-293 (kidney)) | cell survival (positive control) (J774A.1 (macrophage)) | cell survival (positive control) (A549 (lung)) | H37RV MICKAN (Mtb H37Rv) |
| --- | --- | --- | --- | --- |
| Triton-X 100 | < 5% | < 5% | < 5% |  |
| NC[C@H]1O[C@H](O[C@H]2[C@H](O)[C@@H](O[C@H]3O[C@H](CO)[C@@H](O)[C@H](N)[C@H]3O)[C@H](N)C[C@@H]2N)[C@H](O)[C@@H](O)[C@@H]1O [KAN, kanamycin] |  |  |  | <1.25 µg/mL |
